pIC50: −log10 of the molar value. Where two headings read alike, the source gives them in different places.
Target: PI3K isoform δ (Homo sapiens (Human), UniProt O00329)
Test: TR-FRET assay of enzymatic activity of class I PI3K isoforms
Settings: for IC50: TR-FRET, 2× Km ATP, 2 μM PIP2, incubated for 30 minutes at 25° C.
[1] = read-out: IC50 (nM) for PI3K isoform δ (Table 2)
[2] = read-out: IC50 (nM) for PI3K isoform δ (Table 3)

PI3K isoform δ, sequence (O00329 whole entry, canonical isoform): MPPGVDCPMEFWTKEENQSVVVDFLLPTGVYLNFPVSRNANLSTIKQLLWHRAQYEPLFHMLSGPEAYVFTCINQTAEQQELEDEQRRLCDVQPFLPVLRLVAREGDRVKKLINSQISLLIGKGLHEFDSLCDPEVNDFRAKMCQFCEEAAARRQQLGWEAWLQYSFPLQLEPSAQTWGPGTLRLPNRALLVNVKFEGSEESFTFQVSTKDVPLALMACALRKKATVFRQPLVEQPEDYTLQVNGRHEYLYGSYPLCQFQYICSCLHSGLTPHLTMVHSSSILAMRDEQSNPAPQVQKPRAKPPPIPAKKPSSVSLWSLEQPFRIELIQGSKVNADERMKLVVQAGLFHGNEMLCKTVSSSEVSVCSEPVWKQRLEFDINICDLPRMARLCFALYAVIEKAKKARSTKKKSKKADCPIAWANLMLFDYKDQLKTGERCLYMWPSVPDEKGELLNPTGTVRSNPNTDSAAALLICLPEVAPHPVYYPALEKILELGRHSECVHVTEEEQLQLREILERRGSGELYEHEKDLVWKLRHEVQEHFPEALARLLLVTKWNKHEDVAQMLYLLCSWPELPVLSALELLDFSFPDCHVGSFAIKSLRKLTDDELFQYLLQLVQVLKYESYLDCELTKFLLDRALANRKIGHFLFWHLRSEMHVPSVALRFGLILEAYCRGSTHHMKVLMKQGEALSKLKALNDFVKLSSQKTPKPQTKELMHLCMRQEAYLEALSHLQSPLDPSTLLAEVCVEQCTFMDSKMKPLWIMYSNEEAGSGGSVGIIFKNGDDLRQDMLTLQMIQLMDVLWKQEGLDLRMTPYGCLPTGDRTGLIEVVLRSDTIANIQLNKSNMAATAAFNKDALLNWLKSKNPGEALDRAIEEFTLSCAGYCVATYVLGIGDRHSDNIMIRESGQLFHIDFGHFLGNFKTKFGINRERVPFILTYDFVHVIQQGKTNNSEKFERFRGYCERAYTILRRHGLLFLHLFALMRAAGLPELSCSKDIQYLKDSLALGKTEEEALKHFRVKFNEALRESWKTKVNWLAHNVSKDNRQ
PI3K isoform δ, sequence (P27986 whole entry partner, canonical isoform): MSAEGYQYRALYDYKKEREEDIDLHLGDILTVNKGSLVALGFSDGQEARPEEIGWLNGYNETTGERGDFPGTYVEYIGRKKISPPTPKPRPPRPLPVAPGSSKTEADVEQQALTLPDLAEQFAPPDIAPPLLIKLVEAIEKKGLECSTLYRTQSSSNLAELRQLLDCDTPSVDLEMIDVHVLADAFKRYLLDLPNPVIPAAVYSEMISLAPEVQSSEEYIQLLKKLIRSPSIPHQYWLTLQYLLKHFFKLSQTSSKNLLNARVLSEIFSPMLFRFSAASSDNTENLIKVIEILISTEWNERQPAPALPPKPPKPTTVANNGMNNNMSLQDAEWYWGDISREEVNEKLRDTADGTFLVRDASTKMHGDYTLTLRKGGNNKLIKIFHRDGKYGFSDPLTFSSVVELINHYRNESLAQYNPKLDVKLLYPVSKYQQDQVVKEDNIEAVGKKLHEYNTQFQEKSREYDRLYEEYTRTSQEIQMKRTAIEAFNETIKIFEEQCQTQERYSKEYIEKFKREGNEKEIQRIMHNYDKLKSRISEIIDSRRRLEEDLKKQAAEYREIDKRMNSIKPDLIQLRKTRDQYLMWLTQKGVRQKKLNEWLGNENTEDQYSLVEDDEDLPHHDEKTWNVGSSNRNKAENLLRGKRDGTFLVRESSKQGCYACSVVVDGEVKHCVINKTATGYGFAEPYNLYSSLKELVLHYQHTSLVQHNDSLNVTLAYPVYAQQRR
Source text: TR-FRET monitored the formation of 3,4,5-inositol triphosphate molecule that competed with fluorescently labeled PIP3 for binding to the GRP-1 pleckstrin homology domain protein. […] Class I PI3K isoforms were expressed and purified as heterodimeric recombinant proteins. All assay reagents and buffers for the TR-FRET assay were purchased from Millipore.

Compound	IC50 [2] [nM]	further results
Cc1cccc2nc([C@@H](Nc3nc(N)nc(N)c3C#N)C3CC3)n(-c3cc(F)cc(F)c3)c(=O)c12 [Compound 12a, (S)-2,4-diamino-6-((cyclopropyl(3-(3,5-difluorophenyl)-5-methyl-4-oxo-3,4-dihydroquinazolin-2-yl)methyl)amino)pyrimidine-5-carbonitrile]	–	IC50 [1]: 1 nM
CS(=O)(=O)c1cccc2nc([C@@H]3CCCN3c3nc(N)nc(N)c3C#N)n(-c3cccc(F)c3)c(=O)c12 [Compound 72, (S)-2,4-diamino-6-(2-(3-(3-fluorophenyl)-5-(methylsulfonyl)-4-oxo-3,4-dihydroquinazolin-2-yl)pyrrolidin-1-yl)pyrimidine-5-carbonitrile]	4	–
C[C@H](Nc1nc(N)nc(N)c1C#N)c1nc2cccc(CCC(N)=O)c2c(=O)n1-c1cc(F)cc(F)c1 [Compound 40, (S)-3-(2-(1-((2,6-diamino-5-cyanopyrimidin-4-yl)amino)ethyl)-3-(3,5-difluorophenyl)-4-oxo-3,4-dihydroquinazoline-5-yl)propanamide]	4	–
CN(C)C(=O)C[C@H](Nc1nc(N)nc(N)c1C#N)c1nc2cccc(Cl)c2c(=O)n1-c1cc(F)cc(F)c1 [Compound 9a, (S)-3-(5-chloro-3-(3,5-difluorophenyl)-4-oxo-3,4-dihydroquinazolin-2-yl)-3-((2,6-diamino-5-cyanopyrimidin-4-yl)amino)-N,N-dimethylpropanamide]	–	IC50 [1]: 61 nM
CS(=O)(=O)c1cccc2nc([C@@H]3CCCN3c3nc(N)nc(N)c3C#N)n(-c3ccccc3F)c(=O)c12 (atropisomer, axis not shown) [Compound 73, (S)-2,4-diamino-6-(2-(3-(2-fluorophenyl)-5-(methylsulfonyl)-4-oxo-3,4-dihydroquinazolin-2-yl)pyrrolidin-1-yl)pyrimidine-5-carbonitrile]	4	–
N#Cc1c(N)nc(N)nc1N[C@@H](c1ccccc1)c1nc2cccc(Cl)c2c(=O)n1-c1ccccc1 [Compound 3a, (S)-2,4-diamino-6-(((5-chloro-4-oxo-3-phenyl-3,4-dihydroquinazoline-2-yl)(phenyl)methyl)amino)pyrimidine-5-carbonitrile]	–	IC50 [1]: 0.3 nM
C[C@H](Nc1nc(N)nc(N)c1C#N)c1nc2cccc(OCC(=O)N3CCOCC3)c2c(=O)n1-c1ccccc1 [Compound 35, (S)-2,4-diamino-6-((1-(5-(2-morpholino-2-oxoethoxy)-4-oxo-3-phenyl-3,4-dihydroquinazolin-2-yl)ethyl)amino)pyrimidine-5-carbonitrile]	7	–
N#Cc1c(Cl)nc(N)nc1N[C@H](c1nc2cccc(CCCN3CCCC3)c2c(=O)n1-c1ccccc1)C1CC1 [Compound 60, (S)-2-amino-4-chloro-6-((cyclopropyl(4-oxo-3-phenyl-5-(3-(pyrrolidin-1-yl)propyl)-3,4-dihydroquinazolin-2-yl)methyl)amino)pyrimidine-5-carbonitrile]	6	–
CN(C)C(=O)C[C@H](Nc1nc(N)nc(N)c1C#N)c1nc2cccc(Cl)c2c(=O)n1-c1ccccc1 [Compound 10a, (S)-3-(5-chloro-4-oxo-3-phenyl-3,4-dihydroquinazolin-2-yl)-3-((2,6-diamino-5-cyanopyrimidin-4-yl)amino)-N,N-dimethylpropanamide]	–	IC50 [1]: 2 nM
N#Cc1c(N)nc(N)nc1N1CCC[C@H]1c1nc2cccc(S(=O)(=O)c3ccccc3)c2c(=O)n1-c1cccc(F)c1 [Compound 77]	–	pIC50: 8.70
C[C@H](Nc1nc(N)nc(N)c1C#N)c1nc2cccc(CCCN3CC4(COC4)C3)c2c(=O)n1-c1ccccc1 [Compound 62, (S)-4-((1-(5-(3-(2-oxa-6-azaspiro[3.3]heptan-6-yl)propyl)-4-oxo-3-phenyl-3,4-dihydroquinazolin-2-yl)ethyl)amino)-2,6-diaminopyrimidine-5-carbonitrile]	0.8	–
CC(C)OC(=O)COc1cccc2nc([C@H](C)Nc3nc(N)nc(N)c3C#N)n(-c3ccccc3)c(=O)c12 [Compound 25, (S)-isopropyl 2-((2-(1-((2,6-diamino-5-cyanopyrimidin-4-yl)amino)ethyl)-4-oxo-3-phenyl-3,4-dihydroquinazolin-5-yl)oxy)acetate]	36	–
N#Cc1c(N)nc(N)nc1N[C@H](c1nc2c(F)ccc(C#N)c2c(=O)n1-c1ccccc1)C1CC1 [Compound 2a, (S)-2-(cyclopropyl((2,6-diamino-5-cyanopyrimidin-4-yl)amino)methyl)-8-fluoro-4-oxo-3-phenyl-3,4-dihydroquinazoline-5-carbonitrile]	–	IC50 [1]: 10 nM
CS(=O)(=O)c1cccc2nc(C(Nc3nc(N)nc(N)c3C#N)C3CC3)n(-c3ccccc3F)c(=O)c12 (single isomer, unassigned) [Compound 17a-1]	–	IC50 (IC50 (nM) for PI3K isoform δ (Table 2)): 6 nM
Cc1nc(N)nc(N[C@@H](C)c2nc3cccc(Cl)c3c(=O)n2-c2ccccc2)c1I [Compound 97, (S)-2-(1-((2-amino-5-iodo-6-methylpyrimidin-4-yl)amino)ethyl)-5-chloro-3-phenylquinazolin-4(3H)-one]	0.6	–
C[C@H](Nc1nc(N)nc(N)c1C#N)c1nc2c(F)ccc(CCC(N)=O)c2c(=O)n1-c1cc(F)cc(F)c1 [Compound 39, (S)-3-(2-(1-((2,6-diamino-5-cyanopyrimidin-4-yl)amino)ethyl)-3-(3,5-difluorophenyl)-8-fluoro-4-oxo-3,4-dihydroquinazoline-5-yl)propanamide]	2	–
CS(=O)(=O)c1cccc2nc([C@@H](Nc3nc(N)nc(N)c3C#N)C3CC3)n(-c3c(F)cccc3F)c(=O)c12 [Compound 6a, (S)-2,4-diamino-6-((cyclopropyl(3-(2,6-difluorophenyl)-5-(methylsulfonyl)-4-oxo-3,4-dihydroquinazolin-2-yl)methyl)amino)pyrimidine-5-carbonitrile]	–	IC50 [1]: 41 nM
CC(Cc1cccc2nc([C@H](C)Nc3nc(N)nc(N)c3C#N)n(-c3ccccc3)c(=O)c12)N1CCCC1 (stereo partly drawn) [Compound 45, (S)-2,4-diamino-6-((1-(4-oxo-3-phenyl-5-(2-(pyrrolidin-1-yl)propyl)-3,4-dihydroquinazolin-2-yl)ethyl)amino)pyrimidine-5-carbonitrile]	0.7	–
N#Cc1c(N)nc(N)nc1N[C@H](c1nc2cccc(C#N)c2c(=O)n1-c1cc(F)cc(C(F)F)c1)C1CC1 [Compound 4a]	–	IC50 [1]: 49 nM

More lines, main results first:

IC50 [2] [nM]	Compound	further results
0.9	N#Cc1c(N)nc(N)nc1N1C[C@H](NC(=O)CC2CC2)C[C@H]1c1nc2cccc(Cl)c2c(=O)n1-c1ccccc1 [Compound 114, N-((3R,5S)-5-(5-chloro-4-oxo-3-phenyl-3,4-dihydroquinazolin-2-yl)-1-(2,6-diamino-5-cyanopyrimidin-4-yl)pyrrolidin-3-yl)-2,2-cyclopropylacetamide]	–
7	N#Cc1c(N)nc(N)nc1N1C[C@H](NC(=O)CN)C[C@H]1c1nc2cccc(Cl)c2c(=O)n1-c1cc(F)cc(F)c1 [Compound 116, 2-amino-N-((3R,5S)-5-(5-chloro-3-(3,5-difluorophenyl)-4-oxo-3,4-dihydroquinazolin-2-yl)-1-(2,6-diamino-5-cyanopyrimidin-4-yl)pyrrolidin-3-yl)acetamide]	–
4	C[C@H](Nc1nc(Cl)nc(N)c1C#N)c1nc2cccc(Cl)c2c(=O)n1-c1ccccc1 [Compound 104, (S)-4-amino-2-chloro-6-((1-(5-chloro-4-oxo-3-phenyl-3,4-dihydroquinazolin-2-yl)ethyl)amino)pyrimidine-5-carbonitrile]	–
6	Cc1ccccc1S(=O)(=O)c1cccc2nc([C@H](C)Nc3nc(N)nc(N)c3C#N)n(-c3cccc(F)c3)c(=O)c12 [Compound 81, (S)-2,4-diamino-6-((1-(3-(3-fluorophenyl)-4-oxo-5-(o-tolylsulfonyl)-3,4-dihydroquinazolin-2-yl)ethyl)amino)pyrimidine-5-carbonitrile]	–
0.4	N#Cc1c(N)nc(N)nc1N1C[C@H](NC(=O)C(F)F)C[C@H]1c1nc2cccc(Cl)c2c(=O)n1-c1ccccc1 [Compound 107, N-((3R,5S)-5-(5-chloro-4-oxo-3-phenyl-3,4-dihydroquinazolin-2-yl)-1-(2,6-diamino-5-cyanopyrimidin-4-yl)pyrrolidin-3-yl)-2,2-difluoroacetamide]	–
17	C[C@H](Nc1nc(N)nc(N)c1C#N)c1nc2cccc(C3=CCNCC3)c2c(=O)n1-c1ccccc1 [Compound 93, (S)-2,4-diamino-6-((1-(4-oxo-3-phenyl-5-(1,2,3,6-tetrahydropyridin-4-yl)-3,4-dihydroquinazolin-2-yl)ethyl)amino)pyrimidine-5-carbonitrile]	–
0.7	N#Cc1c(N)nc(N)nc1N1C[C@H](NC(=O)C(F)F)C[C@H]1c1nc2cccc(Cl)c2c(=O)n1-c1cc(F)cc(F)c1 [Compound 109, N-((3R,5S)-5-(5-chloro-3-(3,5-difluorophenyl)-4-oxo-3,4-dihydroquinazolin-2-yl)-1-(2,6-diamino-5-cyanopyrimidin-4-yl)pyrrolidin-3-yl)-2,2-difluoroacetamide]	–
1	C[C@H](Nc1nc(N)nc(Cl)c1C#N)c1nc2cccc(Cl)c2c(=O)n1-c1ccccc1 [Compound 101, (S)-2-amino-4-chloro-6-((1-(5-chloro-4-oxo-3-phenyl-3,4-dihydroquinazolin-2-yl)ethyl)amino)pyrimidine-5-carbonitrile]	–
61	C[C@H](Nc1nc(N)nc(N)c1C#N)c1nc2cccc(S(=O)(=O)C3CCCC3)c2c(=O)n1-c1cccc(F)c1 [Compound 80, (S)-2,4-diamino-6-((1-(5-(cyclopentylsulfonyl)-3-(3-fluorophenyl)-4-oxo-3,4-dihydroquinazolin-2-yl)ethyl)amino)pyrimidine-5-carbonitrile]	–
10	Cc1nc(N)c(C#N)c(N[C@@H](C)c2nc3cccc(Cl)c3c(=O)n2-c2ccccc2)n1 [Compound 98, (S)-4-amino-6-((1-(5-chloro-4-oxo-3-phenyl-3,4-dihydroquinazolin-2-yl)ethyl)amino)-2-methylpyrimidine-5-carbonitrile]	–

From patent US9765060B2 (Gilead Sciences, Inc., priority 2014, dated 2017)
